Source: US8080552B2, “Pyrimidyl derivatives as protein kinase inhibitors” (Hoffmann-LA Roche Inc., priority 2006, dated 2011)

Tests used:
[1] = tested on: VEGF-induced HUVEC cells; test: CellTiter-Glo assay in VEGF-induced HUVEC cells; format: cell-based; conditions: Homo sapiens; Table 2; VEGF-induced (20 ng/ml) HUVEC cells, 72 hours, cell viability (ATP luminescence); read-out: IC50 HCT 116
Description: CellTiter-Glo™ Assay in VEGF-Induced HUVEC Cells:
HUVEC-c (Human Umbilical Vein Endothelial Cells, from Promocell Cat-No. C-12200) cells were trypsinized, spinned down and plated in 384-well plates at 1500 cells per well in 60 μl endothelial basal medium (EBM-2 from Promocell, Cat-No. C-22211) with 0.5% Fetal Calf Serum (FCS, Sigma Cat-No. F4135 (FBS)). Cells were incubated overnight at 37° C., and the next day, test compounds (stock solution 140 μmol/l in medium with 4.2% dimethylsulfoxide (DMSO)) were added in 5 μl medium over a final concentration range of 10 μmol/l to 0.5 nmol/l and 0.3% DMSO. Compounds were tested in triplicates. After 2 hrs 5 μl VEGF (VEGF 165, R&D Systems, Cat-No. 293-VE-010, stock solution 280 ng/ml in medium) was added to a final concentration of 20 ng/ml. Cells were incubated for 72 hours at 37° C. in medium. Cell number was quantitated using CellTiter-Glo™ Luminescent Cell Viability Assay (from Promega) according to the instructions of the supplier. This assay measures the number of viable cells per well by measurement of luminescent signal based on amount of cellular ATP. IC50 are determined using a non-linear curve fit (XLfit software (ID Business Solution Ltd., Guilford, Surrey, UK)) (see also CellTiter-Glo™ assay in HCT 116 cells above).

[2] = tested on: HCT 116 cells; test: CellTiter-Glo assay in HCT 116 cells; format: cell-based; conditions: 120 h; HCT 116 human colon carcinoma cells, 5 days incubation, cell viability (ATP luminescence)
Source text: CellTiter-Glo™ Assay in HCT 116 Cells:
The CellTiter-Glo™ Luminescent Cell Viability Assay (Promega) is a homogeneous method of determining the number of viable cells in culture based on quantitation of the ATP present, which signals the presence of metabolically active cells.
HCT 116 cells (human colon carcinoma, ATCC-No. CCl-247) were cultivated in RPMI 1640 medium with GlutaMAX™ I (Invitrogen, Cat-No. 61870-010), 5% Fetal Calf Serum (FCS, Sigma Cat-No. F4135 (FBS)); 100 Units/ml penicillin/100 μg/ml streptomycin (=Pen/Strep from Invitrogen Cat. No. 15140). For the assay the cells were seeded in 384 well plates, 1000 cells per well, in the same medium. The next day the test compounds were added in various concentrations ranging from 30 μM to 0.0015 μM (10 concentrations, 1:3 diluted). After 5 days the CellTiter-Glo™ assay was done according to the instructions of the manufacturer (CellTiter-Glo™ Luminescent Cell Viability Assay, from Promega). In brief: the cell-plate was equilibrated to room temperature for approximately 30 minutes and than the CellTiter-Glo™ reagent was added. The contents were carefully mixed for 15 minutes to induce cell lysis. After 45 minutes the luminescent signal was measured in Victor 2, (scanning multiwell spectrophotometer, Wallac).
• Medium: RPMI 1640 with GlutaMAX™ I (Invitrogen, Cat-Nr. 61870), 5% FCS (Sigma Cat.-No. F4135), Pen/Strep (Invitrogen, Cat No. 15140). • HCT116 (ATCC-No. CCl-247): 1000 cells in 60 μl per well of 384 well plate (Greiner 781098, μClear-plate white) • After seeding incubate plates 24 h at 37° C., 5% CO2 2nd. Day: Induction (Treatment with Compounds, 10 Concentrations):
In order to achieve a final concentration of 30 μM as highest concentration 3.5 μl of 10 mM compound stock solution were added directly to 163 μl media. Then step e) of the dilution procedure described below, was followed.

IC50 [2]: 300 to 10000 nM
Compound: CC1(C)CNc2cc(NC(=O)Nc3ccc(Oc4ccnc(NCCCO)n4)cc3)ccc21 [Example 29, 1-(3,3-Dimethyl-2,3-dihydro-1H-indol-6-yl)-3-{4-[2-(3-hydroxy-propylamino)-pyrimidin-4-yloxy]-phenyl}-urea]
IC50 [1]: 5 to 750 nM
